Results as given in US8642799B2, “Cysteine protease inhibitors for the treatment of parasitic diseases” (Merck Canada Inc., priority 2007, dated 2014).

molecular target: cruzipain (Trypanosoma cruzi, UniProt P25779); assay: biochemical; details: 50 pM cruzipain, pH 5.5, 15 minutes preincubation, 2 μM Z-Phe-Arg-AMC substrate
Procedure: The assay solutions were mixed and incubated for 15 minutes at room temperature prior to the addition of 2 μM of Z-Phe-Arg-AMC substrate. […] Percent of inhibition were calculated by fitting experimental values to standard mathematical model for dose response curve.

cruzipain, sequence (P25779 123-467): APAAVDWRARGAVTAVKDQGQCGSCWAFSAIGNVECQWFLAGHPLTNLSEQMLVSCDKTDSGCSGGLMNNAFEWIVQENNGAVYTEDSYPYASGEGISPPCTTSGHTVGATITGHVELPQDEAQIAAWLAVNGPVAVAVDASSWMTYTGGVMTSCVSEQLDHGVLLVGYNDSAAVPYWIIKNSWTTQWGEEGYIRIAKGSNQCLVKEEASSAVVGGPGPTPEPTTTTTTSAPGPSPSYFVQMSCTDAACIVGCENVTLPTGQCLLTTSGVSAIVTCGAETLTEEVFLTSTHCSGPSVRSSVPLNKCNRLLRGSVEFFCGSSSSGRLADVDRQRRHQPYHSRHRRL

| IC50 [nM] | Structure (SMILES) |
| --- | --- |
| 3.7 | CC(C)(F)C[C@H](N[C@@H](c1ccc(-c2ccc(C3(C(=O)NC4CC4)CC3)cc2)cc1)C(F)(F)F)C(=O)N[C@H](C#N)Cc1ccccc1 [Example 56, 1-[4′-((S)-1-{(S)-1-[((S)-Benzyl-cyano-methyl)-carbamoyl]-3-fluoro-3-methyl-butylamino}-2,2,2-trifluoro-ethyl)-biphenyl-4-yl]-cyclopropanecarboxylic acid cyclopropylamide] |
| 4.3 | N#Cc1ccc(C[C@@H](C#N)NC(=O)[C@@H](N[C@@H](c2ccc(-c3ccc([C@@H](O)C(F)F)cc3)cc2)C(F)(F)F)C2CC2)c(F)c1 [Example 69, (S)-N-[(S)-Cyano-(4-cyano-2-fluoro-benzyl)-methyl]-2-cyclopropyl-2-{(S)-1-[4′-((R)-2,2-difluoro-1-hydroxy-ethyl)-biphenyl-4-yl]-2,2,2-trifluoro-ethylamino}-acetamide] |
| 0.94 | CC(C)C[C@H](N[C@@H](c1ccc(Br)cc1)C(F)(F)F)C(=O)N[C@H](C#N)Cc1ccc(C#N)cc1 [Example 21, (S)-2-[(S)-1-(4-Bromo-phenyl)-2,2,2-trifluoro-ethylamino]-4-methyl-pentanoic acid [(S)-1-cyano-2-(4-cyano-phenyl)-ethyl]-amide] |
| 0.7 | CC(C)[C@H](N[C@@H](c1ccc(-c2ccc(C3(C(N)=O)CC3)cc2)cc1)C(F)(F)F)C(=O)N[C@H](C#N)Cc1ccccc1 [Example 48, 1-[4′-((S)-1-{(S)-1-[((S)-Benzyl-cyano-methyl)-carbamoyl]-2-methyl-propylamino}-2,2,2-trifluoro-ethyl)-biphenyl-4-yl]-cyclopropanecarboxylic acid amide] |
| 1.9 | CC(C)(F)C[C@H](N[C@@H](c1ccc(-c2ccc(C3(C(=O)NCC(N)=O)CC3)cc2)cc1)C(F)(F)F)C(=O)N[C@H](C#N)Cc1ccccc1 [Example 55, 1-[4′-((S)-1-{(S)-1-[((S)-Benzyl-cyano-methyl)-carbamoyl]-3-fluoro-3-methyl-butylamino}-2,2,2-trifluoro-ethyl)-biphenyl-4-yl]-cyclopropanecarboxylic acid carbamoylmethyl-amide] |
| 2.1 | CC(C)[C@H](N[C@@H](c1ccc(-c2ccc([C@@H](O)C(F)F)cc2)cc1)C(F)(F)F)C(=O)N[C@H](C#N)Cc1c(F)cc(Br)cc1F [Example 71, (S)-N-[(S)-(4-Bromo-2,6-difluoro-benzyl)-cyano-methyl]-2-{(S)-1-[4′-((R)-2,2-difluoro-1-hydroxy-ethyl)-biphenyl-4-yl]-2,2,2-trifluoro-ethylamino}-3-methyl-butyramide] |
| 3.2 | CC(C)[C@H](N[C@@H](c1ccc(-c2ccc([C@@H](O)C(F)F)cc2)cc1)C(F)(F)F)C(=O)N[C@H](C#N)Cc1ccccc1 [Example 50, (S)-N-((S)-Benzyl-cyano-methyl)-2-{(S)-1-[4′-((R)-2,2-difluoro-1-hydroxy-ethyl)-biphenyl-4-yl]-2,2,2-trifluoro-ethylamino}-3-methyl-butyramide] |
| 12.4 | CC(C)(F)C[C@H](N[C@@H](c1ccc(-c2ccc(S(C)(=O)=O)cc2)cc1)C(F)(F)F)C(=O)N[C@H](C#N)Cc1ccc(C(F)(F)F)cc1 [Example 19, (S)-4-Fluoro-4-methyl-2-[(S)-2,2,2-trifluoro-1-(4′-methanesulfonyl-biphenyl-4-yl)-ethylamino]-pentanoic acid [(S)-1-cyano-2-(4-trifluoromethyl-phenyl)-ethyl]-amide] |
| 1.5 | CC(C)(F)C[C@H](N[C@@H](c1ccc(-c2ccc(S(C)(=O)=O)cc2)cc1)C(F)(F)F)C(=O)N[C@H](C#N)Cc1ccc(C#N)cc1 [Example 3, (S)-4-Fluoro-4-methyl-2-[(S)-2,2,2-trifluoro-1-(4′-methanesulfonyl-biphenyl-4-yl)-ethylamino]-pentanoic acid [(S)-1-cyano-2-(4-cyano-phenyl)-ethyl]-amide] |
